{"source": "patent US8993542B2", "about": "“Methods of treating viral infections” (priority 2008, dated 2015)", "key": {"HIV-1": {"system": "HIV-1", "conditions": "monotherapy in naïve patients (Louie et al.); cited from earlier work"}, "HIV-1Ba-L": {"system": "HIV-1Ba-L", "protocol": "The anti-HIV-1 activity of CMX157 is evaluated in two-drug combination studies with twenty-four different FDA-approved anti-HIV inhibitors. Each two-drug combination is tested three times in CEM T-lymphocytic cells or MAGI-CCR5 cells acutely infected with the laboratory-adapted strain HIV-1IIIB or HIV-1Ba-L, respectively. Viral growth/inhibition is evaluated by measuring virus-induced cytopathic effects (CPE) in CEM cells or by β-galactosidase reporter gene induction in MAGI-CCR5 cells at the experimental endpoint. The cytotoxicity of each two-drug combination is also evaluated in parallel with the antiviral evaluations. The concentrations of CMX157 used in these evaluations are selected in order to test a broad range of concentrations and to provide as complete a dose response curve as possible under the limitations of eight total concentrations. […] The “positive antagonism control” of d4T (stavudine) in combination with RBV was tested in parallel with each of the assays that were performed. Analysis of drug interactions for each of the two-drug combinations is performed using the Prichard and Shipman MacSynergy II three-dimensional model for statistical evaluation of combination assays."}, "HIV": {"system": "HIV", "test": "microbe, parasite or virus in culture", "type": "cell-based"}, "HIV-1IIIB": {"system": "HIV-1IIIB", "test": "Two-drug combination antiviral assay in CEM cells (CPE), MacSynergy II", "type": "cell-based", "conditions": "in combination with CMX157, CEM-SS cells, 95% confidence"}, "[1]": {"conditions": "in combination with CMX157, MAGI-CCR5 cells, 95% confidence"}}}
{"compound": "CC(C)OC(=O)OCOP(=O)(CO[C@H](C)Cn1cnc2c(N)ncnc21)OCOC(=O)OC(C)C.O=C(O)/C=C/C(=O)O", "note": "[TDF, 2,4,6,8-Tetraoxa-5-phosphanonanedioic acid, 5-[[(1R)-2-(6-amino-9H-purin-9-yl)-1-methylethoxy]methyl]-, bis(1-methylethyl) ester, 5-oxide, (2E)-2-butenedioate (1:1)]", "values": [{"measurement": "viral load response", "setting": "HIV-1", "value": "−1.5", "unit": "log"}]}
{"compound": "maraviroc [Maraviroc (MVC)]", "values": [{"measurement": "Antagonism Volume, Result 1", "setting": "HIV-1Ba-L; [1]", "value": "−3.82 nM^2 %, μM^2 % or nMμM %"}, {"measurement": "Antagonism Volume, Result 2", "setting": "HIV-1Ba-L; [1]", "value": "−3.12 nM^2 %, μM^2 % or nMμM %"}, {"measurement": "Antagonism Volume, Result 3", "setting": "HIV-1Ba-L; [1]", "value": "0 nM^2 %, μM^2 % or nMμM %"}, {"measurement": "Mean Antagonism Volume (n = 3)", "setting": "HIV-1Ba-L; [1]", "value": "−2.31 nM^2 %, μM^2 % or nMμM %"}, {"measurement": "Mean Synergy Volume (n = 3)", "setting": "HIV-1Ba-L; [1]", "value": "85.3 nM^2 %, μM^2 % or nMμM %"}, {"measurement": "Synergy Volume, Result 1", "setting": "HIV-1Ba-L; [1]", "value": "145 nM^2 %, μM^2 % or nMμM %"}, {"measurement": "Synergy Volume, Result 2", "setting": "HIV-1Ba-L; [1]", "value": "14.1 nM^2 %, μM^2 % or nMμM %"}, {"measurement": "Synergy Volume, Result 3", "setting": "HIV-1Ba-L; [1]", "value": "96.6 nM^2 %, μM^2 % or nMμM %"}, {"measurement": "Interpretation of Antiviral Results (MacSynergy)", "setting": "HIV-1Ba-L; two-drug combination (with CMX157; control d4T/RBV), MAGI-CCR5 cells", "value": "slightly synergistic"}]}
{"compound": "Cc1cn([C@H]2C[C@H](N=[N+]=[N-])[C@@H](CO)O2)c(=O)[nH]c1=O", "note": "[ZDV, 3′-azido-2′,3′-dideoxythymdine]", "values": [{"measurement": "IC50", "setting": "HIV; Human immunodeficiency virus 1, PANEL 2, WT", "value": 17, "unit": "nM"}, {"measurement": "IC50", "setting": "HIV; Human immunodeficiency virus 1, PANEL 3, 6 TAMs, no 184", "value": 9560, "unit": "nM"}, {"measurement": "IC50", "setting": "HIV; Human immunodeficiency virus 1, PANEL 6, 6 TAMs + 184", "value": 1610, "unit": "nM"}, {"measurement": "IC50", "setting": "HIV; Human immunodeficiency virus 1, PANEL 7, 184V", "value": 17, "unit": "nM"}, {"measurement": "IC50", "setting": "HIV; Human immunodeficiency virus 1, PANEL 9, 69ins, no 184", "value": "> 25000", "unit": "nM"}, {"measurement": "IC50", "setting": "HIV; Human immunodeficiency virus 1, PANEL 12, 69ins + 184", "value": 8710, "unit": "nM"}, {"measurement": "IC50", "setting": "HIV; Human immunodeficiency virus 1, PANEL 14, 65R, no 184", "value": 12, "unit": "nM"}, {"measurement": "IC50", "setting": "HIV; Human immunodeficiency virus 1, PANEL 15, 65R + 184V", "value": 11, "unit": "nM"}, {"measurement": "IC50", "setting": "HIV; Human immunodeficiency virus 1, PANEL 17, L74V", "value": 11, "unit": "nM"}, {"measurement": "IC50", "setting": "HIV; Human immunodeficiency virus 1, PANEL 19, L74V + M184V", "value": 6, "unit": "nM"}, {"measurement": "IC50", "setting": "HIV; Human immunodeficiency virus 1, PANEL 26, 151M, no 184", "value": 2540, "unit": "nM"}, {"measurement": "IC50", "setting": "HIV; Human immunodeficiency virus 1, PANEL 28, 151M + 184", "value": 4180, "unit": "nM"}, {"measurement": "IC50", "setting": "HIV; Human immunodeficiency virus 1, PANEL 29, L74V − SDM", "value": 14, "unit": "nM"}, {"measurement": "IC50", "setting": "HIV; Human immunodeficiency virus 1, PANEL 30, M184V − SDM", "value": 9, "unit": "nM"}, {"measurement": "IC50", "setting": "HIV; Human immunodeficiency virus 1, PANEL 31, K65R − SDM", "value": 14, "unit": "nM"}, {"measurement": "IC50", "setting": "HIV; Human immunodeficiency virus 1, PANEL 33, T215Y", "value": 1050, "unit": "nM"}, {"measurement": "IC50", "setting": "HIV; Human immunodeficiency virus 1, PANEL 34, T215Y + M184V", "value": 71, "unit": "nM"}, {"measurement": "IC50", "setting": "HIV; Human immunodeficiency virus 1, PANEL 35, M41L + T215Y", "value": 557, "unit": "nM"}, {"measurement": "IC50", "setting": "HIV; Human immunodeficiency virus 1, PANEL 37, M41L + T215Y + M184V", "value": 177, "unit": "nM"}, {"measurement": "IC50", "setting": "HIV; Human immunodeficiency virus 1, PANEL 38, M41L + L210W + T215Y", "value": 2720, "unit": "nM"}, {"measurement": "IC50", "setting": "HIV; Human immunodeficiency virus 1, PANEL 39, M41L + L210W + T215Y", "value": 2680, "unit": "nM"}, {"measurement": "IC50", "setting": "HIV; Human immunodeficiency virus 1, PANEL 40, M41L + L210W + T215Y + M184V", "value": 87, "unit": "nM"}, {"measurement": "IC50", "setting": "HIV; Human immunodeficiency virus 1, PANEL 41, M41L + L210W + T215Y + M184V", "value": 107, "unit": "nM"}, {"measurement": "IC50", "setting": "HIV; Human immunodeficiency virus 1, PANEL 42, D67N + K70R", "value": 770, "unit": "nM"}, {"measurement": "IC50", "setting": "HIV; Human immunodeficiency virus 1, PANEL 44, D67N + K70R + T215F + K219E + M184V", "value": 192, "unit": "nM"}, {"measurement": "IC50", "setting": "HIV; Human immunodeficiency virus 1, PANEL 45, L210W + T215Y", "value": 207, "unit": "nM"}, {"measurement": "IC50", "setting": "HIV; Human immunodeficiency virus 1, PANEL 46, D67N + K70E", "value": 6, "unit": "nM"}, {"measurement": "IC50", "setting": "HIV; Human immunodeficiency virus 1, PANEL 47, D67N + K70E + M184V", "value": 4, "unit": "nM"}, {"measurement": "IC50", "setting": "HIV; Human immunodeficiency virus 1, PANEL 48, K70E + M184V", "value": 4, "unit": "nM"}, {"measurement": "Antagonism Volume, Result 1", "setting": "HIV-1IIIB", "value": "−67.8 nM^2 %, μM^2 % or nMμM %"}, {"measurement": "Antagonism Volume, Result 2", "setting": "HIV-1IIIB", "value": "0 nM^2 %, μM^2 % or nMμM %"}, {"measurement": "Antagonism Volume, Result 3", "setting": "HIV-1IIIB", "value": "−0.77 nM^2 %, μM^2 % or nMμM %"}, {"measurement": "Mean Antagonism Volume (n = 3)", "setting": "HIV-1IIIB", "value": "−21.7 nM^2 %, μM^2 % or nMμM %"}, {"measurement": "Mean Synergy Volume (n = 3)", "setting": "HIV-1IIIB", "value": "11.5 nM^2 %, μM^2 % or nMμM %"}, {"measurement": "Synergy Volume, Result 1", "setting": "HIV-1IIIB", "value": "5.01 nM^2 %, μM^2 % or nMμM %"}, {"measurement": "Synergy Volume, Result 2", "setting": "HIV-1IIIB", "value": "32.7 nM^2 %, μM^2 % or nMμM %"}, {"measurement": "Synergy Volume, Result 3", "setting": "HIV-1IIIB", "value": "0 nM^2 %, μM^2 % or nMμM %"}]}
